Assay results: US20250340939A1 (priority 2021, published 2025)
“Also recorded” adds a separate entry of the source.

How the values were obtained:
[1] = tested on: E. coli; test: Antimicrobial susceptibility testing (AST) with MST read-out of 16S rRNA; parameters: dose or concentration left out as unconfirmed; details: 5*10^5 bacteria; 90-150 minutes
Method: Kanamycin resistant E. coli bacteria, DH5α or BL-21, were maintained as frozen stocks at −80° C. in homemade L.B (Bacto tryptone 10 g/L, NaCl 10 g/L Bacto yest extract 5 g/L in autoclavable DDW) supplemented with 50% Glycerol as cryoprotective agent. Cultures were started from frozen stocks and cultivated at 37° C. overnight, at the presence of 30 μg/ml Kanamycin. After starter growth, bacteria amount was measured using optical density for further experiments.
Bacteria was grown as described in “bacterial growth” section and adjusted to 0.1 O.D for a second growing step after overnight starter. When reached 0.6 O.D, bacterial concentration adjusted to 7.143*10^5 bacteria/ml and 0.7 ml (5*10^5 bacteria) were divided to slit-cap Eppendorf tubes containing Ampicillin antibiotic or water as control. The tubes were placed in a temperature control thermo-mixer for further growth at 37° C. At an indicated time-point, tubes were taken out combined with RNA protect reagent for RNA extraction as previously described.

[2] = tested on: human total RNA; test: MST of 16S probe / Dox with human total RNA (specificity); type: binding; details: 100 μM Dox with 16S1^Cy5; blue mode
Method: (§1) In order to assess the effect of human RNA presence and Dox post-hybridization on signal response, 16S1^Cy5 was incubated with increasing concentrations of bacterial or human total RNA at 71° C. for 2 hours. Equal amounts were then taken for post-hybridization incubation with Dox or hybridization buffer as a control.
In order to compare signal sensitivity in the presence and absence of Dox, ΔFnorm[‰] values of human RNA were subtracted (ΔΔFnorm), and the ratios of ΔΔFnorm[‰] were compared.

[3] = tested on: S-gene RNA (SARS-CoV2); type: binding
[4] = MST of Dox alone in hybridization solution; type: physicochemical; details: 3.125-100 μM Dox; no RNA, no probes; blue mode
Method: In order to investigate the possibility that Dox monomers interact with each other, thereby causing Dox to migrate into the heating zone particularly at high Dox concentrations, Dox was incubated in hybridization solution without the presence of either S-gene RNA or the DNA probes.

[5] = tested on: 16S rRNA (E. coli); test: MST of Cy5 probes hybridized with total bacterial RNA; type: binding
Method: For bacterial RNA extraction, DH5α E. coli cells transfected with pcDNA3.1+ plasmid were grown overnight in LB medium containing 100 μg/ml ampicillin. The concentration of bacterial cells was determined according to OD at 600 nm, and ˜7·10^8 cells were taken for RNA extraction. 1 volume of bacterial culture was mixed with 2 volumes of RNAprotect® Bacteria Reagent (QIAGEN), vortexed for 5 seconds and incubated for 5 minutes at room temperature. The sample was then centrifuged for 10 minutes at 5,000×g at room temperature. After discarding supernatant, the pellet was resuspended in 100 μl TE buffer (10 mM Tris-HCl, 1 mM EDTA, pH 8) containing 1 mg/ml lysozyme. The samples were vortexed for 5 seconds, and then incubated at room temperature for 10 minutes with vortexing every 2 minutes. 1 ml TRIzol™ reagent was added to the sample. The sample was incubated at room temperature for 5 minutes, and then RNA extraction was performed as described hereinabove.
RNA was extracted from a sample, and after extraction, the RNA pellet was solubilized and hybridized with a specific fluorescently labeled DNA probe in a hybridization solution (as schematically depicted in FIG. 1). After hybridization, the hybridized sample was loaded into an MST capillary and inserted into a Monolith™ MST instrument (NanoTemper Technologies GmbH, Germany). This instrument included a blue mode (493 nm excitation, […]) and red mode ([…], 670 nm emission) for detection, and an I.R laser (1475 nm+/−15 nm) for heating. The intensities for both fluorescence detection (LED) and IR laser are adjustable, in a range of 0%-100%, wherein the temperature gradient generated has a temperature difference of up to about 2-8° C. Thermophoretic force was induced by infrared laser after 1 second, and maintained for 2 seconds, for a total of a 3 second measurement window (measurement time may optionally be further reduced to 2 seconds using current available MST instruments).
For RNA titration measurements, the extracted RNA solution was diluted to X2 and a serial dilution was prepared in water. Hybridization solutions were prepared as described herein, were X1 solution consisted of SSC buffer X1, 0.05% TWEEN™ 20 surfactant, and 1% formamide unless indicated otherwise. Fluorescently labeled probes were diluted from a 100 μM stock to 1:2400 in hybridization solution X2, denatured for 5 minutes at 100° C. and then incubated on ice for 5 minutes. If a mixture of uniformly labeled probes was prepared, the probes were diluted to a 1:1200 dilution in water and then diluted to 1:2400 with hybridization solution X4 (1:1/number of probes) to create equal molarity of the fluorescent dye. The probe solution was combined with the titration series in a 1:1 (v/v) ratio (10 μL total volume) and allowed to hybridize at a defined temperature for a given time as described. If post-hybridization with intercalating agents (ICA), doxorubicin or Midori™ Green, was performed, the samples were combined with ICA X5 solution 4:1 (v:v) ratio, 8 μL and 2 μL respectively. For cell based measurements, after extraction, the RNA pellet was solubilized and hybridized with a specific fluorescently labeled DNA probe in a hybridization solution (as schematically depicted in FIG. 1).
In order to determine the optimal hybridization temperature, one of the designed probes (16S1^Cy5) was incubated with increasing concentrations of bacterial RNA at different temperatures for 10 minutes. MST measurements were then performed using the red wavelength acquisition mode.
as §1, with “control. […]” for “control.”

SMILES | growth of E. coli bacteria in the presence of antibiotic [1] | Dox signal dependence on RNA concentration [2] | effect of Dox on slope of S^Cy5 linear regression (analytical sensitivity) ([3]; 100 μM Dox vs 0, 1 or 10 μM Dox) | effect of S-gene RNA concentration on Dox signal without DNA probe ([3]; 100 μM Dox, no S^Cy5 probe, blue mode) | Dox fluorescence dependence on S-gene RNA concentration ([3]; 1, 10 or 100 μM Dox, S^Cy5 present, blue mode) | effect of Dox on initial fluorescence intensity of S^Cy5 ([3]; 1, 10 or 100 μM Dox, dose-dependent, prior to temperature gradient) | degree of Dox migration into the heating zone [4] | effect of Dox on signal sensitivity of 16S probes ([5]; 100 μM Dox post-hybridization) | Dox signal dependence on RNA concentration ([5]; 100 μM Dox with 16S1^Cy5, blue mode)
CC1(C)S[C@@H]2[C@H](NC(=O)[C@H](N)c3ccccc3)C(=O)N2[C@H]1C(=O)O [Ampicillin] | no growth was observed |  |  |  |  |  |  |  | 
COc1cccc2c1C(=O)c1c(O)c3c(c(O)c1C2=O)C[C@@](O)(C(=O)CO)C[C@@H]3O[C@H]1C[C@H](N)[C@H](O)[C@H](C)O1 [Dox, doxorubicin, reference compound] |  | dependent on the concentrations of both human RNA and bacterial RNA | steeper slope | did not noticeably affect the change in signal | dependent on S-gene RNA concentration | decreased the initial fluorescence intensity values | correlated to Dox concentration | increased signal sensitivity; also recorded: enhanced signal sensitivity to a considerable extent | dependent on the concentrations of both human RNA and bacterial RNA
